In ChEMBL document CHEMBL1123660 (J Med Chem, 1987):
pKi: −log10 of the molar value.

Assays:
[1] = system: Platelet-activating factor receptor (Oryctolagus cuniculus); experiment: Percent inhibition of [3H]PAF to platelet-activating factor (PAF) receptor from rabbit platelet membranes at; conditions: concentration not given here
Oryctolagus cuniculus = species on record: Oryctolagus cuniculus; experiment: PAF antagonism was determined by rabbit platelet inhibition and neurophil aggregation and degranulation at 0.1 to 1 uM concentration.; type: functional

SMILES | inhibition [1] [%] | pKi (Oryctolagus cuniculus)
CCCC1=C[C@]2(OC)C(=CC1=O)O[C@H](c1ccc(OC)c(OC)c1)[C@H]2C | 61 | 
C=CCC1=C[C@@]2(OC)C(=CC1=O)O[C@H](c1ccc(OC)c(OC)c1)[C@H]2C (stereo in doubt) [KADSURENONE] |  | 7.24
